Laboratory results from ChEMBL document CHEMBL5543142, “Discovery of YFJ-36: Design, Synthesis, and Antibacterial Activities of Catechol-Conjugated β-Lactams against Gram-Negative Bacteria” (J Med Chem, 2024).

Assays:
Escherichia coli [1] = experiment: Antibacterial activity against Escherichia coli ATCC-35218 assessed as inhibition of bacterial growth incubated for 18 to 20 hrs in presence of CAMHB medium by two fold serial dilution assay; format: functional; conditions: time 18-20 hrs
Escherichia coli [2] = experiment: Antibacterial activity against ESBL-producing multidrug-resistant Escherichia coli clinical isolate 14-4 assessed as inhibition of bacterial growth incubated for 18 to 20 hrs by two fold serial dilution assay; format: functional; conditions: time 18-20 hrs
Escherichia coli [3] = experiment: Antibacterial activity against ESBL-producing multidrug-resistant Escherichia coli clinical isolate 14-1 assessed as inhibition of bacterial growth incubated for 18 to 20 hrs by two fold serial dilution assay; format: functional; conditions: time 18-20 hrs
Acinetobacter baumannii [4] = experiment: Antibacterial activity against OXA-23 producing multidrug-resistant Acinetobacter baumannii clinical isolate 17-3 assessed as inhibition of bacterial growth incubated for 18 to 20 hrs by two fold serial dilution assay; format: functional; conditions: time 18-20 hrs
Pseudomonas aeruginosa [5] = experiment: Antibacterial activity against IMP-4 producing multidrug-resistant Pseudomonas aeruginosa clinical isolate 19-5 assessed as inhibition of bacterial growth incubated for 18 to 20 hrs by two fold serial dilution assay; format: functional; conditions: time 18-20 hrs
Acinetobacter baumannii [6] = experiment: Antibacterial activity against OXA-23 producing multidrug-resistant Acinetobacter baumannii clinical isolate 17-7 assessed as inhibition of bacterial growth incubated for 18 to 20 hrs by two fold serial dilution assay; format: functional; conditions: time 18-20 hrs
Escherichia coli [7] = experiment: Antibacterial activity against Escherichia coli NCTC-13353 assessed as inhibition of bacterial growth incubated for 18 to 20 hrs in presence of iron-depleted CAMHB medium by two fold serial dilution assay; format: functional; conditions: time 18-20 hrs
Escherichia coli [8] = experiment: Antibacterial activity against ESBL-producing multidrug-resistant Escherichia coli clinical isolate 14-2 assessed as inhibition of bacterial growth incubated for 18 to 20 hrs by two fold serial dilution assay; format: functional; conditions: time 18-20 hrs
Pseudomonas aeruginosa [9] = experiment: Antibacterial activity against IMP-4 producing multidrug-resistant Pseudomonas aeruginosa clinical isolate 17-13 assessed as inhibition of bacterial growth incubated for 18 to 20 hrs by two fold serial dilution assay; format: functional; conditions: time 18-20 hrs
Pseudomonas aeruginosa [10] = experiment: Antibacterial activity against IMP-4 producing multidrug-resistant Pseudomonas aeruginosa clinical isolate 17-1 assessed as inhibition of bacterial growth incubated for 18 to 20 hrs by two fold serial dilution assay; format: functional; conditions: time 18-20 hrs
[11] = molecular target: Voltage-gated inwardly rectifying potassium channel KCNH2 (Homo sapiens, UniProt Q12809); experiment: Inhibition of hERG by whole cell Qpatch assay; format: toxicity
Chain of Voltage-gated inwardly rectifying potassium channel KCNH2 (Q12809 whole entry): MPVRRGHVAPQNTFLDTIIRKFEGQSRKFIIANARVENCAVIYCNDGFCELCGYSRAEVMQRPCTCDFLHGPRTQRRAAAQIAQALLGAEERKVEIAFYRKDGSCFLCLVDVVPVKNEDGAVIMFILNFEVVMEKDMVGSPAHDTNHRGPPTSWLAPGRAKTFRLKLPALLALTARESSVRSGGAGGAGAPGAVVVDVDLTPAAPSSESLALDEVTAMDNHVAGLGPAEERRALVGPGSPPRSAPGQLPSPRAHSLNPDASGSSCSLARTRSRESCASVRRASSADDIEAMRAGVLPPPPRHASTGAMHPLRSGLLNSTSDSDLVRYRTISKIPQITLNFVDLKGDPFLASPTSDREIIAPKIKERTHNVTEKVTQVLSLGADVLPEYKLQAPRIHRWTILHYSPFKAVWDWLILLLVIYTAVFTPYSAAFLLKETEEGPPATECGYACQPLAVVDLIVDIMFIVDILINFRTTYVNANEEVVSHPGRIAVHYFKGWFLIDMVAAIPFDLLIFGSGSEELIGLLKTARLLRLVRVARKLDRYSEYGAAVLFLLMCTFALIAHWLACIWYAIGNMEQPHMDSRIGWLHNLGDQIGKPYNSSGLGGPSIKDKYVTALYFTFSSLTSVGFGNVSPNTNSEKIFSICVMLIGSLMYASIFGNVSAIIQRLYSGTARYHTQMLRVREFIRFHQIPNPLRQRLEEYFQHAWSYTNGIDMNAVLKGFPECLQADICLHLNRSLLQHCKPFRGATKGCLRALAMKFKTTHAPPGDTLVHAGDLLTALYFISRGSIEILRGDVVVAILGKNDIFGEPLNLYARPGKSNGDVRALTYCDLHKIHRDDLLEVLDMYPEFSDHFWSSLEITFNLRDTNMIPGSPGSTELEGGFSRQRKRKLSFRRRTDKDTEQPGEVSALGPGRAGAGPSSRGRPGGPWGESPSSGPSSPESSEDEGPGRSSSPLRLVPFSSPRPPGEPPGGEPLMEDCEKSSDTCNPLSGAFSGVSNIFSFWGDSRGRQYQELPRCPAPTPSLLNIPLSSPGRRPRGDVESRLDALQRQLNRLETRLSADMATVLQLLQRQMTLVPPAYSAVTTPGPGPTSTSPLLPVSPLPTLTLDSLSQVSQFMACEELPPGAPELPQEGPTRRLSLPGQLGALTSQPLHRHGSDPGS

Klebsiella pneumoniae [12] = experiment: Antibacterial activity against KPC-2 producing multidrug-resistant Klebsiella pneumoniae clinical isolate 15-5 assessed as inhibition of bacterial growth incubated for 18 to 20 hrs by two fold serial dilution assay; format: functional; conditions: time 18-20 hrs
Escherichia coli [13] = experiment: Antibacterial activity against Escherichia coli NCTC-13353 assessed as inhibition of bacterial growth incubated for 18 to 20 hrs in presence of CAMHB medium by two fold serial dilution assay; format: functional; conditions: time 18-20 hrs
Acinetobacter baumannii [14] = experiment: Antibacterial activity against OXA-23 producing multidrug-resistant Acinetobacter baumannii clinical isolate 17-2 assessed as inhibition of bacterial growth incubated for 18 to 20 hrs by two fold serial dilution assay; format: functional; conditions: time 18-20 hrs
hERG (KCNH2) = hERG (KCNH2) (Homo sapiens, UniProt Q12809); experiment: Inhibition of hERG at 40 uM by whole cell Qpatch assay relative to control; format: toxicity
Chain of hERG (KCNH2) (Q12809 whole entry): as above

Pseudomonas aeruginosa [15] = experiment: Antibacterial activity against IMP-4 producing multidrug-resistant Pseudomonas aeruginosa clinical isolate 19-1 assessed as inhibition of bacterial growth incubated for 18 to 20 hrs by two fold serial dilution assay; format: functional; conditions: time 18-20 hrs
Pseudomonas aeruginosa [16] = experiment: Antibacterial activity against IMP-4 producing multidrug-resistant Pseudomonas aeruginosa clinical isolate 19-17 assessed as inhibition of bacterial growth incubated for 18 to 20 hrs by two fold serial dilution assay; format: functional; conditions: time 18-20 hrs
Escherichia coli [17] = experiment: Antibacterial activity against Escherichia coli ATCC35218 assessed as inhibition of bacterial growth incubated for 18 to 20 hrs by two fold serial dilution assay; format: functional; conditions: time 18-20 hrs
Klebsiella pneumoniae [18] = experiment: Antibacterial activity against KPC-2 producing multidrug-resistant Klebsiella pneumoniae clinical isolate 15-2 assessed as inhibition of bacterial growth incubated for 18 to 20 hrs by two fold serial dilution assay; format: functional; conditions: time 18-20 hrs
Klebsiella pneumoniae [19] = experiment: Antibacterial activity against Klebsiella pneumoniae ATCC BAA-1898 assessed as inhibition of bacterial growth incubated for 18 to 20 hrs in presence of CAMHB medium by two fold serial dilution assay; format: functional; conditions: time 18-20 hrs
Klebsiella pneumoniae [20] = experiment: Antibacterial activity against KPC-2 producing multidrug-resistant Klebsiella pneumoniae clinical isolate 15-1 assessed as inhibition of bacterial growth incubated for 18 to 20 hrs by two fold serial dilution assay; format: functional; conditions: time 18-20 hrs
Klebsiella pneumoniae [21] = experiment: Antibacterial activity against Klebsiella pneumoniae ATCC BAA-1898 assessed as inhibition of bacterial growth incubated for 18 to 20 hrs in presence of iron-depleted CAMHB medium by two fold serial dilution assay; format: functional; conditions: time 18-20 hrs
Klebsiella pneumoniae [22] = experiment: Antibacterial activity against KPC-2 producing multidrug-resistant Klebsiella pneumoniae clinical isolate 15-3 assessed as inhibition of bacterial growth incubated for 18 to 20 hrs by two fold serial dilution assay; format: functional; conditions: time 18-20 hrs
Acinetobacter baumannii [23] = experiment: Antibacterial activity against OXA-23 producing multidrug-resistant Acinetobacter baumannii clinical isolate 17-8 assessed as inhibition of bacterial growth incubated for 18 to 20 hrs by two fold serial dilution assay; format: functional; conditions: time 18-20 hrs
Escherichia coli [24] = experiment: Antibacterial activity against Escherichia coli ATCC-35218 assessed as inhibition of bacterial growth incubated for 18 to 20 hrs in presence of iron-depleted CAMHB medium by two fold serial dilution assay; format: functional; conditions: time 18-20 hrs
Acinetobacter baumannii [25] = experiment: Antibacterial activity against OXA-23 producing multidrug-resistant Acinetobacter baumannii clinical isolate 17-6 assessed as inhibition of bacterial growth incubated for 18 to 20 hrs by two fold serial dilution assay; format: functional; conditions: time 18-20 hrs
Acinetobacter baumannii [26] = experiment: Antibacterial activity against OXA-23 producing multidrug-resistant Acinetobacter baumannii clinical isolate 17-5 assessed as inhibition of bacterial growth incubated for 18 to 20 hrs by two fold serial dilution assay; format: functional; conditions: time 18-20 hrs
[27] = MRT in ICR mouse at 20 mg/kg,iv administration measured upto 6 hrs by LC-MS/MS analysis; format: ADME, organism-based; conditions: in vivo
[28] = Half life in ICR mouse at 20 mg/kg,iv administration measured upto 6 hrs by LC-MS/MS analysis; format: ADME, organism-based; conditions: in vivo
[29] = Plasma protein binding in mouse incubated for 35 mins by LC-MS/MS analysis; format: ADME, cell-free; conditions: read-out: PPB (converted)
[30] = Clearance in ICR mouse at 20 mg/kg,iv administration measured upto 6 hrs by LC-MS/MS analysis; format: ADME, organism-based; conditions: in vivo
[31] = AUC (0 to infinity) in ICR mouse at 20 mg/kg,iv administration measured upto 6 hrs by LC-MS/MS analysis; format: ADME, organism-based; conditions: in vivo
[32] = Volume of distribution at steady state in ICR mouse at 20 mg/kg,iv administration measured upto 6 hrs by LC-MS/MS analysis; format: ADME, organism-based; conditions: in vivo, read-out: Vdss
Acinetobacter baumannii [33] = experiment: Antibacterial activity against OXA-23 producing multidrug-resistant Acinetobacter baumannii clinical isolate 15-4 assessed as inhibition of bacterial growth incubated for 18 to 20 hrs by two fold serial dilution assay; format: functional; conditions: time 18-20 hrs
Acinetobacter baumannii [34] = experiment: Antibacterial activity against OXA-23 producing multidrug-resistant Acinetobacter baumannii clinical isolate 15-3 assessed as inhibition of bacterial growth incubated for 18 to 20 hrs by two fold serial dilution assay; format: functional; conditions: time 18-20 hrs
Acinetobacter baumannii [35] = experiment: Antibacterial activity against OXA-23 producing multidrug-resistant Acinetobacter baumannii clinical isolate 15-5 assessed as inhibition of bacterial growth incubated for 18 to 20 hrs by two fold serial dilution assay; format: functional; conditions: time 18-20 hrs
Acinetobacter baumannii [36] = experiment: Antibacterial activity against OXA-23 producing multidrug-resistant Acinetobacter baumannii clinical isolate 15-2 assessed as inhibition of bacterial growth incubated for 18 to 20 hrs by two fold serial dilution assay; format: functional; conditions: time 18-20 hrs
Acinetobacter baumannii [37] = experiment: Antibacterial activity against OXA-23 producing multidrug-resistant Acinetobacter baumannii clinical isolate 15-1 assessed as inhibition of bacterial growth incubated for 18 to 20 hrs by two fold serial dilution assay; format: functional; conditions: time 18-20 hrs

| Structure (SMILES) | MIC (Escherichia coli [1]) [µg/mL] | MIC (Escherichia coli [2]) [µg/mL] | MIC (Escherichia coli [3]) [µg/mL] | MIC (Acinetobacter baumannii [4]) [µg/mL] | MIC (Escherichia coli [7]) [µg/mL] | MIC (Escherichia coli [8]) [µg/mL] | MIC (Pseudomonas aeruginosa [9]) [µg/mL] | MIC (Pseudomonas aeruginosa [10]) [µg/mL] | IC50 [11] [µM] | MIC (Klebsiella pneumoniae [12]) [µg/mL] | MIC (Escherichia coli [13]) [µg/mL] | inhibition at 40 µM (hERG (KCNH2)) [%] | MIC (Pseudomonas aeruginosa [16]) [µg/mL] | MIC (Escherichia coli [17]) [µg/mL] | MIC (Klebsiella pneumoniae [18]) [µg/mL] | MIC (Klebsiella pneumoniae [19]) [µg/mL] | MIC (Klebsiella pneumoniae [20]) [µg/mL] | MIC (Klebsiella pneumoniae [21]) [µg/mL] | MIC (Klebsiella pneumoniae [22]) [µg/mL] | MIC (Escherichia coli [24]) [µg/mL] | other results |
| --- | --- | --- | --- | --- | --- | --- | --- | --- | --- | --- | --- | --- | --- | --- | --- | --- | --- | --- | --- | --- | --- |
| Nc1nc(/C(=N/O[C@H](C(=O)O)C2CCC(F)(F)CC2)C(=O)N[C@@H]2C(=O)N3C(C(=O)O)=C(CSCCNC(=O)c4ccc(O)c(O)c4Cl)CS[C@H]23)cs1.O=C(O)C(F)(F)F | 2 | 0.125 | 0.25 | 0.5 | 1 | 1 | 0.125 | 64 | > 40 | 1 | 1 | 23.8 | 0.25 | 0.125 | 1 | 8 | 0.25 | 2 | 0.25 | 0.5 | MIC (Pseudomonas aeruginosa [5]): 2 µg/mL; MIC (Acinetobacter baumannii [6]): 0.5 µg/mL; MIC (Acinetobacter baumannii [14]): 0.5 µg/mL; MIC (Pseudomonas aeruginosa [15]): 8 µg/mL; MIC (Acinetobacter baumannii [23]): 1 µg/mL; MIC (Acinetobacter baumannii [25]): 0.5 µg/mL; MIC (Acinetobacter baumannii [26]): 0.25 µg/mL |
| C[C@@](O/N=C(\C(=O)N[C@@H]1C(=O)N2C(C(=O)O)=C(CSCCNC(=O)c3ccc(O)c(O)c3Cl)CS[C@H]12)c1nc(N)sc1Cl)(C(=O)O)C(F)(F)F.O=C(O)C(F)(F)F | 0.5 | ≤ 0.03 | 0.06 | 0.5 | 0.25 | 0.5 | 0.125 | 8 | > 40 | 0.125 | 0.5 | 40.5 | 0.06 | 0.06 | 0.5 | 16 | 0.25 | 4 | 0.5 | ≤ 0.03 | MIC (Pseudomonas aeruginosa [5]): 0.25 µg/mL; MIC (Acinetobacter baumannii [6]): 0.5 µg/mL; MRT [27]: 18 min; half-life [28]: 18 min; fraction unbound at 35 min [29]: 0.066; MIC (Acinetobacter baumannii [14]): 0.06 µg/mL; MIC (Pseudomonas aeruginosa [15]): 1 µg/mL; clearance [30]: 397 mL/min/kg; AUC(0-inf) [31]: 968 ng·h/mL; MIC (Acinetobacter baumannii [23]): 0.125 µg/mL; Vd [32]: 7.74 L/kg; MIC (Acinetobacter baumannii [25]): 0.5 µg/mL; MIC (Acinetobacter baumannii [26]): 0.125 µg/mL |
| Nc1nc(/C(=N/OC(C(=O)O)C2CCC(F)(F)CC2)C(=O)N[C@@H]2C(=O)N3C(C(=O)O)=C(CSCCNC(=O)c4ccc(O)c(O)c4Cl)CS[C@H]23)cs1.O=C(O)C(F)(F)F (some centres undefined) | 2 | 0.125 | 0.5 |  | 0.5 | 0.5 | 0.25 | 4 | > 40 | 0.25 | 0.5 | 16.8 | 1 | ≤ 0.03 | 0.5 | 8 | 2 | 2 | 1 | 0.25 | MIC (Acinetobacter baumannii [33]): 4 µg/mL; MIC (Acinetobacter baumannii [34]): 4 µg/mL; MRT [27]: 45.6 min; half-life [28]: 188 min; MIC (Acinetobacter baumannii [35]): 2 µg/mL; clearance [30]: 33.9 mL/min/kg; MIC (Acinetobacter baumannii [36]): 2 µg/mL; MIC (Acinetobacter baumannii [37]): 4 µg/mL; AUC(0-inf) [31]: 10400 ng·h/mL; Vd [32]: 1.59 L/kg |
